Experiments:
[1] = system: C2C12 muscle cells; experiment: Oxygen consumption rate of TNF-α damaged muscle cells (Seahorse XF24); assay type: cell-based, mice; settings: TNF-α 10 ng/ml, relative to control group (1-fold); for oxygen consumption of ATP production: FIG. 1A; for oxygen consumption of maximal respiration: FIG. 1B
Text: (§1) It is known that severe exercise or long-term exercise may lead to a large release of tumor necrosis factor alpha (TNF-α) and a decrease in mitochondria functions such as oxygen consumption rate (OCR, which represents the ability of aerobic metabolism of mitochondria) and extracellular acidification rate (ECAR, which represents the ability of glycolysis of mitochondria), so that the mitochondria cannot generate enough energy to supply cells in a subject, thereby resulting in the occurrence of fatigue in the subject. In this example, the C2C12 muscle cells with TNF-α induced damages were administered with the composition of the present invention, which comprises Cistanche tubulosa extract and ubiquinol, to understand the effect of the composition on anti-fatigue.
First, C2C12 cells (i.e., the muscle cells of mice; purchased from ATCC) were cultivated in an H-DMEM medium (purchased from Sigma company) containing 10% fetal bovine serum (purchased from BI company). After the C2C12 cells grew to the confluence rate of 80% (i.e., the mixed monolayer cells were accounted for 80% of the area), the cells were divided into seventeen groups (including a control group, a TNF-α group and fifteen experimental groups) and separately subjected to the following treatments: • 1. Control group: cells were cultivated in an H-DMEM medium for 6 hours; and then, the medium was replaced with a differentiation medium (containing an H-DMEM medium and 2% horse serum), and the cells were continuously cultivated for another 4 days. • 2. TNF-α group: cells were cultivated in an H-DMEM medium for 6 hours; and then, the medium was replaced with a differentiation medium (containing an H-DMEM medium and 2% horse serum) being externally added with TNF-α (to a final concentration of 10 ng/ml), and the cells were continuously cultivated overnight; finally, the medium was replaced with a differentiation medium, and the cells were cultivated for another 4 days. • 3. […] In Table 1, the extract and ubiquinol were dissolved in a differentiation medium, and the unit “μg/ml” represents the weight of extract (as dry weight) and/or ubiquinol (as dry weight) in every milliliter of the differentiation medium.
The cells in the control group, TNF-α group and experimental groups 1 to 15 provided by Example (1-1) were respectively taken, and the oxygen consumption rates (including the oxygen consumption of ATP production and the oxygen consumption of maximal respiration) thereof were examined by a cell energy metabolism analyzer (Seahorse XF24). Then, the result of the control group was served as a basis (i.e., the oxygen consumption rate of the control group was set as 1-fold) to calculate the oxygen consumption rate of each group.

[2] = system: C2C12 muscle cells; experiment: Extracellular acidification rate of TNF-α damaged muscle cells (cell energy metabolism analyzer); assay type: cell-based, mice; settings: TNF-α 10 ng/ml, relative to control group (1-fold)
Text: as §1
First, C2C12 cells (i.e., the muscle cells of mice; purchased from ATCC) were cultivated in an H-DMEM medium (purchased from Sigma company) containing 10% fetal bovine serum (purchased from BI company). After the C2C12 cells grew to the confluence rate of 80% (i.e., the mixed monolayer cells were accounted for 80% of the area), the cells were divided into seventeen groups (including a control group, a TNF-α group and fifteen experimental groups) and separately subjected to the following treatments: • 1. […]

| Compound | oxygen consumption of ATP production [1] | oxygen consumption of maximal respiration [1] | glycolysis level ([2]; FIG. 2A) | glycolytic reserve ([2]; FIG. 2B) |
| --- | --- | --- | --- | --- |
| COc1c(O)c(C)c(C/C=C(\C)CC/C=C(\C)CC/C=C(\C)CC/C=C(\C)CC/C=C(\C)CC/C=C(\C)CC/C=C(\C)CC/C=C(\C)CC/C=C(\C)CCC=C(C)C)c(O)c1OC [ubiquinol] | cannot alleviate | cannot alleviate | – | – |
| TNF-α | significantly decreased | significantly decreased | significantly increased | significantly decreased |

Source: US10485836B2, “Anti-fatigue composition used for increasing endurance performance, and use of the same” (SINPHAR PHARMACEUTICAL CO., LTD., priority 2017, dated 2019)
